Test results published in PubChem BioAssay AID1963985 (Molecular Pharmacology Branch, DTP, NCI, 2024).

System: 252836-082-R-J2-PDC tumor spheroids, viability
Assay: Anticancer human tumor 252836-082-R-J2-PDC patient-derived head and neck squamous cell carcinoma cell line growth inhibition [PI3K]
Settings: spheroids with HUVEC and MSC; for IC50: curve of first compound; for viability, T/C: stronger effect = lower value
Method in brief: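 Stroma-containing spheroids: tumor line, pooled-donor HUVEC, hMSC. Treatments: targeted agents with PI3K inhibitors. Dosing: clinically relevant, half-log spacing, 10 microM ceiling without known Cmax. Read-out: cell viability.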

[1] = second compound 0.00316 µM, first compound 0.0316 µM
[2] = second compound 0.00316 µM, first compound 0.1 µM
[3] = second compound 0.00316 µM, first compound 0.316 µM
[4] = second compound 0.00316 µM, first compound 1 µM
[5] = second compound 0.00316 µM, first compound 3.16 µM
[6] = second compound 0.00316 µM, first compound 10 µM
[7] = second compound 0.01 µM, first compound 0.0316 µM
[8] = second compound 0.01 µM, first compound 0.1 µM
[9] = second compound 0.01 µM, first compound 0.316 µM
[10] = second compound 0.01 µM, first compound 1 µM
[11] = second compound 0.01 µM, first compound 3.16 µM
[12] = second compound 0.01 µM, first compound 10 µM
[13] = second compound 0.0316 µM, first compound 0.0316 µM
[14] = second compound 0.0316 µM, first compound 0.1 µM
[15] = second compound 0.0316 µM, first compound 0.316 µM
[16] = second compound 0.0316 µM, first compound 1 µM
[17] = second compound 0.0316 µM, first compound 3.16 µM
[18] = second compound 0.0316 µM, first compound 10 µM
[19] = second compound 0.1 µM, first compound 0.0316 µM
[20] = second compound 0.1 µM, first compound 0.1 µM
[21] = second compound 0.1 µM, first compound 0.316 µM
[22] = second compound 0.1 µM, first compound 1 µM
[23] = second compound 0.1 µM, first compound 3.16 µM
[24] = second compound 0.1 µM, first compound 10 µM
[25] = second compound 0.316 µM, first compound 0.0316 µM
[26] = second compound 0.316 µM, first compound 0.1 µM
[27] = second compound 0.316 µM, first compound 0.316 µM
[28] = second compound 0.316 µM, first compound 1 µM
[29] = second compound 0.316 µM, first compound 3.16 µM
[30] = second compound 0.316 µM, first compound 10 µM
[31] = second compound 1 µM, first compound 0.0316 µM
[32] = second compound 1 µM, first compound 0.1 µM
[33] = second compound 1 µM, first compound 0.316 µM
[34] = second compound 1 µM, first compound 1 µM
[35] = second compound 1 µM, first compound 3.16 µM
[36] = second compound 1 µM, first compound 10 µM
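Note: spheroids exposed to agents for seven days before readout.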
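Throughout, for viability, T/C: percent of vehicle DMSO control viability so 100% = untreated growth.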

C[C@@H](NC(=O)c1ncnc(N)c1Cl)c1ncc(C(=O)Nc2cc(C(F)(F)F)c(Cl)cn2)s1 + COc1c(OCCCN2CCOCC2)ccc2c3n(c(=NC(=O)c4cnc(N)nc4)nc12)CCN3
IC50 (second compound 0.00316 µM): > 10000 nM
IC50 (second compound 0.01 µM): > 10000 nM
IC50 (second compound 0.0316 µM): > 10000 nM
IC50 (second compound 0.1 µM): < 31.6 nM
IC50 (second compound 0.316 µM): < 31.6 nM
IC50 (second compound 1 µM): < 31.6 nM
viability, T/C [1]: 89.6%
viability, T/C [2]: 77.8%
viability, T/C [3]: 104%
viability, T/C [4]: 84.7%
viability, T/C [5]: 94.5%
viability, T/C [6]: 85.8%
viability, T/C [7]: 81%
viability, T/C [8]: 71.4%
viability, T/C [9]: 79.5%
viability, T/C [10]: 77.5%
viability, T/C [11]: 72.4%
viability, T/C [12]: 84.2%
viability, T/C [13]: 69.6%
viability, T/C [14]: 66.1%
viability, T/C [15]: 80.5%
viability, T/C [16]: 56%
viability, T/C [17]: 62.1%
viability, T/C [18]: 59.6%
viability, T/C [19]: 37.6%
viability, T/C [20]: 39.1%
viability, T/C [21]: 39.9%
viability, T/C [22]: 37%
viability, T/C [23]: 43.3%
viability, T/C [24]: 32.1%
viability, T/C [25]: 18.4%
viability, T/C [26]: 16.6%
viability, T/C [27]: 21%
viability, T/C [28]: 17.7%
viability, T/C [29]: 17.2%
viability, T/C [30]: 9.8%
viability, T/C [31]: 5.39%
viability, T/C [32]: 5.07%
viability, T/C [33]: 5.62%
viability, T/C [34]: 6.77%
viability, T/C [35]: 5.91%
viability, T/C [36]: 1.42%

Cn1ncc(Cl)c1-c1cc(C(=O)NC(CN)Cc2cccc(F)c2)sc1Cl (centres undefined) + COc1c(OCCCN2CCOCC2)ccc2c3n(c(=NC(=O)c4cnc(N)nc4)nc12)CCN3
IC50 (second compound 0.00316 µM): 781 nM
IC50 (second compound 0.01 µM): 416 nM
IC50 (second compound 0.0316 µM): 376 nM
IC50 (second compound 0.1 µM): < 31.6 nM
IC50 (second compound 0.316 µM): < 31.6 nM
IC50 (second compound 1 µM): < 31.6 nM
viability, T/C [1]: 88.6%
viability, T/C [2]: 79.1%
viability, T/C [3]: 60.2%
viability, T/C [4]: 45.7%
viability, T/C [5]: 32.3%
viability, T/C [6]: 11.2%
viability, T/C [7]: 71.8%
viability, T/C [8]: 67.8%
viability, T/C [9]: 50.6%
viability, T/C [10]: 40.1%
viability, T/C [11]: 29%
viability, T/C [12]: 18.4%
viability, T/C [13]: 59.1%
viability, T/C [14]: 68.6%
viability, T/C [15]: 50%
viability, T/C [16]: 34.5%
viability, T/C [17]: 23.1%
viability, T/C [18]: 11.7%
viability, T/C [19]: 40.8%
viability, T/C [20]: 36.4%
viability, T/C [21]: 37%
viability, T/C [22]: 26.4%
viability, T/C [23]: 17.2%
viability, T/C [24]: 9.98%
viability, T/C [25]: 21.1%
viability, T/C [26]: 13.9%
viability, T/C [27]: 14.8%
viability, T/C [28]: 14.2%
viability, T/C [29]: 13%
viability, T/C [30]: 7.08%
viability, T/C [31]: 4.42%
viability, T/C [32]: 4.98%
viability, T/C [33]: 4.84%
viability, T/C [34]: 6.71%
viability, T/C [35]: 4.88%
viability, T/C [36]: 1.6%
